According to US20260256136A1, “STABILIZATION OF ALDEHYDES AND/OR AN ALCOHOLS” (priority 2022, published 2026):
Read-outs that look alike come from different tables or passages of the source.

Assays:
[1] = Accelerated storage test of aldehyde mixture with additive, 40 ppm Cu (Example 1); type: physicochemical
Description: To a mixture of aldehydes containing; (Z)-9-hexadecenal, (Z)-11-hexadecenal, hexadecanal, (Z)-11-hexadecen-1-ol, (Z)-11-hexadecenoic acid and 40 ppm Cu was added an additive as indicated in table 1 below. The mixture was thoroughly mixed and heated without cap in an oven at 55° C. for 14 days as an accelerated storage test.

[2] = Accelerated storage test of aldehyde mixture with additive, 10 ppm Cu (Example 2)
Description: The term “accelerated storage test” as used herein refers to a well known protocol for investigating the stability of a particular composition. The protocol is described in for example the memorandum dated 16 Nov. 2012 from The United States Environmental Protection Agency Washington, D.C. 20460 with the subject title “Accelerated Storage Stability and Corrosion Characteristics Study Protocol”. The protocol evaluates product stability at 54° C.±2° C. for 14 days.

[3] = Storage test of aldehyde mixture containing 4-hydroxy-TEMPO with additive (Example 4); type: physicochemical; conditions: for Heptane / Z11-16:OH / 16:Acid / OH tempo / Z9-16:Ald / 15-1:Ald / 16:Ald / Z11-16:Ald: after 55° C. 14 days without cap; for Heptane: before test 0.04, without additive 0.04; for Z11-16:OH: before test 0.27, without additive 0.06; for 16:Acid: before test 1.05, without additive 6.14; for OH tempo: before test 1.19, without additive 1.11; for Z9-16:Ald: before test 5.09, without additive 3.71; for 15-1:Ald: before test 7.27, without additive 5.83; for 16:Ald: before test 8.41, without additive 6.64; for Z11-16:Ald: before test 75.31, without additive 57.21, in % (unit assumed)
Description: To a mixture of aldehydes containing; 4-hydroxy-TEMPO (4-hydroxy-2,2,6,6-tetramethylpiperidin-1-oxyl), (Z)-10-pentenenal, (Z)-9-hexadecenal, (Z)-11-hexadecenal, hexadecanal, (Z)-11-hexadecen-1-ol and (Z)-11-hexadecenoic acid in the composition listed in table 4 below was added up to 1% of an additive in table below. The mixture was thoroughly mixed and heated without cap in an oven at 55° C. for 14 days.

[4] = Storage test of aldehyde mixture containing 4-hydroxy-TEMPO and 10 ppm Copper with additive (Example 3); conditions: for suppressing acid formation and degradation of the aldehydes: 55 C 14 days; for suppressing acid formation and degradation of the aldehydes / Z11-16:OH / Z10-15:Ald / 16:Acid / Z9-16:Ald / 16:Ald / Z11-16:Ald: 10 ppm Copper; for Z11-16:OH / Z10-15:Ald / 16:Acid / Z9-16:Ald / 16:Ald / Z11-16:Ald: after 55 C 14 days without cap; for Z11-16:OH: before test 2.16, blank 1.44; for Z10-15:Ald: before test 2.61, blank 2.72; for 16:Acid: before test 3.01, blank 7.94; for Z9-16:Ald: before test 5.33, blank 3.91; for 16:Ald: before test 8.16, blank 6.48; for Z11-16:Ald: before test 74.98, blank 58.18
Description: To a mixture of aldehydes containing; 4-hydroxy-TEMPO (4-hydroxy-2,2,6,6-tetramethylpiperidin-1-oxyl), (Z)-10-pentenenal, (Z)-9-hexadecenal, (Z)-11-hexadecenal, hexadecanal, (Z)-11-hexadecen-1-ol (Z)-11-hexadecenoic acid and 10 ppm Copper in the composition listed in table 3 below was added up to 1% of an additive in table below. The mixture was thoroughly mixed and heated without cap in an oven at 55 C for 14 days.

SMILES	Heptane [3]	Z11-16:OH [3]	16:Acid [3]	OH tempo [3]	Z9-16:Ald [3]	15-1:Ald [3]	16:Ald [3]	Z11-16:Ald [3]	suppressing acid formation and degradation of the aldehydes [4]	Z11-16:OH [4]	Z10-15:Ald [4]	16:Acid [4]	Z9-16:Ald [4]	16:Ald [4]	Z11-16:Ald [4]	suppressing acid formation and/or degradation of the aldehydes [3]	further results
[Na+].[O-][n+]1ccccc1[S-] [Sodium pyrithione]	0.04	0.24	1.58	1.05	5.08	6.71	8.29	74.65	particularly efficient at suppressing acid formation and degradation of the aldehydes	2.14	2.87	3.39	5.18	8.07	74.71	–	suppressing degradation ([1]; 55° C. 14 days): particularly efficient at suppressing degradation; Z9-16:Ald ([1]; after 55° C. 14 days without cap, before test 4.3, blank 3.066023): 3.083; C16:Acid ([1]; after 55° C. 14 days without cap, before test 6.7, blank 18.84135): 8.924; 16:Ald ([1]; after 55° C. 14 days without cap, before test 7.5, blank 6.659339): 6.675; Z11-16Ald ([1]; after 55° C. 14 days without cap, before test 69.4, blank 54.83784, in % (unit assumed)): 57.02; suppressing degradation ([2]; 55° C. 14 days): highly efficient at suppressing degradation; C16:Acid ([2]; after 55° C. 14 days without cap, before test 1.05, blank 17.72): 3.34; Z9-16:Ald ([2]; after 55° C. 14 days without cap, before test 5.09, blank 3.05): 4.20; 16:Ald ([2]; after 55° C. 14 days without cap, before test 8.41, blank 6.60): 8.73; Z11-16Ald ([2]; after 55° C. 14 days without cap, before test 75.31, blank 54.31): 76.47; suppressing acid formation and/or degradation of the aldehydes ([3]; 55° C. 14 days): particularly efficient at suppressing acid formation and/or degradation of the aldehydes
Sc1nc2ccccc2[nH]1 [2-mercapto-Benzimidazole]	0.04	0.00	4.23	1.05	3.43	6.16	6.97	59.82	particularly efficient at suppressing acid formation and degradation of the aldehydes	1.87	3.10	3.80	4.70	7.53	69.33	–	OH tempo [4]: 1.11
SC1=NCCS1 [2-thiazoline-2-thiol]	0.04	0.00	1.69	0.83	4.64	6.26	8.08	68.79	–	2.18	2.48	2.74	5.06	8.21	75.24	particularly efficient at suppressing acid formation and/or degradation of the aldehydes	–
Cc1nnc(S)s1 [5-Methyl-1,3,4-thiadiazole-2-thiol]	0.04	0.29	1.38	1.14	4.38	6.71	8.04	71.38	–	2.12	2.74	3.02	4.69	7.81	71.97	particularly efficient at suppressing acid formation and/or degradation of the aldehydes	–
